Reference: patent US20070015723A1, “Antiviral oligonucleotides having a conserved G4 core sequence” (priority 1992, published 2007)
Where “and” joins values, the source holds several entries; their conditions need not be identical. Equal values may be shown once. Strand notation (5' to 3'): a small letter for the sugar, then the base; units joined by * are phosphorothioate-linked, units joined directly phosphodiester-linked; [ ] holds rarer units or linkages, { } end groups; capitals alone tell only the bases. {Fluor} = fluorescein moiety via fluorescein-labeled amidite; d = 2'-deoxy (DNA)

Tests used:
HSV-1 (KOS) = assay: HSV-1 infection ELISA assay; format: cell-based
[1] = biological target: T1, human type II phospholipase A2 (Homo sapiens, UniProt P14555); assay: Human type II phospholipase A2 enzyme assay (3H-oleic acid labelled E. coli substrate); format: biochemical; settings: 1 μM
T1 sequence (P14555 21-144): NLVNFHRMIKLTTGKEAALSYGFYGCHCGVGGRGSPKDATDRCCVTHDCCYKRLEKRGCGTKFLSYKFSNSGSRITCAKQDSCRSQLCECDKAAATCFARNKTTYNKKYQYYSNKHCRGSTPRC

[2] = HSV-1 (KOS strain), Table 9, some in duplicate
[3] = 50% inhibition of HSV replication relative to control infected cells, Table 1
[4] = Table 5, two separate experiments

Row | Substance | EC50 (HSV-1 (KOS); [2]) | EC50 (HSV-1 (KOS); [3]) | further results
1 | ISIS 4112: GACTGGGGCGAGGTAGGGGT, phosphorothioate, SEQ ID NO 132 (GACTGGGGCGAGGTAGGGGT; antisense; all phosphorothioate, sugars by position and methylation of C not given here) | 300 nM |  | 
2 | ISIS 4348: GGGTTGGAGACCGGGGTTGG, phosphorothioate, SEQ ID NO 125 (GGGTTGGAGACCGGGGTTGG; all phosphorothioate, sugars by position and methylation of C not given here) | 400 nM |  | 
3 | ISIS 5302: CAC GAA AGG CAT GAC, P = S, SEQ ID NO 7 (CACGAAAGGCATGAC; all phosphorothioate, sugars by position and methylation of C not given here) |  | > 3000 nM | 
4 | ISIS 4885: A GAC CGG GGT TGG GG, P = S, SEQ ID NO 24 (AGACCGGGGTTGGGG; all phosphorothioate, sugars by position and methylation of C not given here) |  | 420 nM and 510 nM | 
5 | ISIS 4692: T GGG T ATA G AAG GGC TCC, P = S, SEQ ID NO 51 (TGGGTATAGAAGGGCTCC; all phosphorothioate, sugars by position and methylation of C not given here) |  | 1500 nM | 
6 | ISIS 4874: AGG CAT GAC CGG GGC, P = S, SEQ ID NO 3 (AGGCATGACCGGGGC; all phosphorothioate, sugars by position and methylation of C not given here) |  | 1100 nM and 830 nM | 
7 | ISIS 4393: GGGGTTGGGGAATGAATCCC, phosphorothioate, SEQ ID NO 124 (GGGGTTGGGGAATGAATCCC; antisense; all phosphorothioate, sugars by position and methylation of C not given here) | 200 nM |  | 
8 | ISIS 4342: TTGGAGACCGGGGTTGGGGA, phosphorothioate, SEQ ID NO 128 (TTGGAGACCGGGGTTGGGGA; antisense; all phosphorothioate, sugars by position and methylation of C not given here) | 200 nM |  | 
9 | ISIS 4346: GAGGTGGGCTTCGGTGGTGA, phosphorothioate, SEQ ID NO 123 (GAGGTGGGCTTCGGTGGTGA; antisense; all phosphorothioate, sugars by position and methylation of C not given here) | 500 nM |  | 
10 | ISIS 4872: GGC GGG ACT ACG GGG, P = S, SEQ ID NO 11 (GGCGGGACTACGGGG; all phosphorothioate, sugars by position and methylation of C not given here) |  | 1900 nM and 1700 nM | 
11 | ISIS 4895: CGC CGA TGC GGG GCG, P = S, SEQ ID NO 19 (CGCCGATGCGGGGCG; all phosphorothioate, sugars by position and methylation of C not given here) |  | 550 nM | 
12 | ISIS 5339: sequence of 1082 (SEQ ID NO 134) with a fluorescein moiety conjugated to the 5′ end (GCCGAGGTCCATGTCGTACGC; DNA, 5' {Fluor}, backbone not given here) |  |  | EC50 (HSV-1 (KOS); Table 13, fluorescein-conjugated): 650 nM
13 | ISIS 5356: CGG GGT TGG GG, P = S, SEQ ID NO 25 (CGGGGTTGGGG; all phosphorothioate, sugars by position and methylation of C not given here) |  | 700 nM | 
14 | ISIS 4890: GCC AGG GGA ATC CGT, P = S, SEQ ID NO 15 (GCCAGGGGAATCCGT; all phosphorothioate, sugars by position and methylation of C not given here) |  | 750 nM and 700 nM | 
15 | ISIS 4341: TGGAGACCGGGGTTGGGGAA, phosphorothioate, SEQ ID NO 127 (TGGAGACCGGGGTTGGGGAA; antisense; all phosphorothioate, sugars by position and methylation of C not given here) | 200 nM |  | 
16 | ISIS 4435: GGGGAGACCGAAACCGCAAA, phosphorothioate, SEQ ID NO 130 (GGGGAGACCGAAACCGCAAA; antisense; all phosphorothioate, sugars by position and methylation of C not given here) | 220 nM |  | 
17 | ISIS 4889: AGG GGA ATC CGT CAT, P = S, SEQ ID NO 14 (AGGGGAATCCGTCAT; all phosphorothioate, sugars by position and methylation of C not given here) |  | 2000 nM | 
18 | ISIS 4399: GTCCCGACTGGGGCGAGGAT, phosphorothioate, SEQ ID NO 133 (GTCCCGACTGGGGCGAGGAT; antisense; all phosphorothioate, sugars by position and methylation of C not given here) | 250 nM |  | 
19 | ISIS 4894: CAT CGC CGA TCG GGG, P = S, SEQ ID NO 18 (CATCGCCGATCGGGG; all phosphorothioate, sugars by position and methylation of C not given here) |  | > 3000 nM | 
20 | ISIS 5310: GTT GGA GAC CGG GGT TGG GI, Inosine #20, SEQ ID NO 141 (GTT GGA GAC CGG GGTTGG GI; inosine at 20, as printed in the source, key not given here) |  |  | EC50 (HSV-1 (KOS); Table 12, inosine-substituted): 400 nM
21 | ISIS 5309: GTT GGA GAC CGI GGT TGG GG, Inosine #12, SEQ ID NO 140 (GTT GGA GAC CGI GGTTGG GG; inosine at 12, as printed in the source, key not given here) |  |  | EC50 (HSV-1 (KOS); Table 12, inosine-substituted): > 3000 nM
22 | ISIS 4349: GGTTGGAGACCGGGGTTGGG, phosphorothioate, SEQ ID NO 126 (GGTTGGAGACCGGGGTTGGG; antisense; all phosphorothioate, sugars by position and methylation of C not given here) | 250 nM |  | 
23 | ISIS 4693: G T ATA G AAG GGC TCC, P = S, SEQ ID NO 52 (GTATAGAAGGGCTCC; all phosphorothioate, sugars by position and methylation of C not given here) |  | > 3000 nM | 
24 | ISIS 4671: GGG T GGG T ATA GAA G, P = S, SEQ ID NO 49 (GGGTGGGTATAGAAG; all phosphorothioate, sugars by position not given here) |  | 400 nM | 
25 | ISIS 3470: GTAGGGAGGGAGGGTATGAGA, phosphorothioate, SEQ ID NO 66 (dG*dT*dA*dG*dG*dG*dA*dG*dG*dG*dA*dG*dG*dG*dT*dA*dT*dG*dA*dG*dA) |  |  | inhibition of human type II phospholipase A2 [1]: completely inhibited; % Inhibition (1 μM) ([1]; Table 4): 88.9%
26 | ISIS 3694: ACAGCAGCTGTGAGGAGACAC, phosphorothioate, SEQ ID NO 92 (dA*dC*dA*dG*dC*dA*dG*dC*dT*dG*dT*dG*dA*dG*dG*dA*dG*dA*dC*dA*dC) |  |  | % Inhibition (1 μM) ([1]; Table 4): 28.2%
27 | GGG TGG GTA TAG AAG: truncated version of ISIS 3196, SEQ ID NO 98 (dG*dG*dG*dT*dG*dG*dG*dT*dA*dT*dA*dG*dA*dA*dG) |  |  | % Inhibition (1 μM) [1, 4]: 82.5%
28 | ISIS 4947: AGG TGG GTA TAG, SEQ ID NO 103 (dA*dG*dG*dT*dG*dG*dG*dT*dA*dT*dA*dG; aptamer) |  |  | % Inhibition (1 μM) [1, 4]: 22.7%
29 | ISIS 4956: GGG CGG GTA TAG, SEQ ID NO 105 (dG*dG*dG*dC*dG*dG*dG*dT*dA*dT*dA*dG; aptamer) |  |  | % Inhibition (1 μM) [1, 4]: 92.0%
